Laboratory results: US20220016215A1, “GIP RECEPTOR AGONIST PEPTIDE COMPOUNDS AND USES THEREOF” (TAKEDA PHAARMACEUTICAL COMPANY LIMITED, priority 2018, published 2022)
Marks after values point to notes of the source that are not given here. Non-standard residues stand in square brackets, D forms with d. Groups on a side chain read outwards from the residue. No end group written: not given here. *: point of attachment. C15 diacid = O=C(O)CCCCCCCCCCCCCC(=O)*; Palmitoyl = CCCCCCCCCCCCCCCC(=O)*; Aib = CC(C)(N)C(=O)O

Assays:
[1] = system: morphine (0.6 mg/kg, s.c.)-induced emesis in ferrets; experiment: Morphine-induced acute emetic model in male ferrets; type: in vivo, ferret; settings: for Emesis: Duration / Emesis: Frequency / Emesis: No. of animals (responder/used) / Fidget: Duration / Fidget: Frequency / Fidget: No. of animals (responder/used) / Licking: Duration / Licking: Frequency / Licking: No. of animals (responder/used) / Retching: Duration / Retching: Frequency / Retching: No. of animals (responder/used) / Vomiting: Duration / Vomiting: Frequency / Vomiting: No. of animals (responder/used) / Emesis: Latency / Fidget: Latency / Licking: Latency / Retching: Latency / Vomiting: Latency: morphine 0.6 mg/kg s.c. 0.5 h after drug, 106-[…] s.c. (30 nmol/kg); for Emesis: Latency / Fidget: Latency / Licking: Latency / Retching: Latency / Vomiting: Latency: non-responders counted as 30 min; for Attenuation of morphine-induced emesis (in words) / Comment: Anti-Emetic Activity (inhibition) on morphine-induced emesis: male ferrets; for Attenuation of morphine-induced emesis (in words): 30 nmol/kg s.c. 30 minutes before morphine 0.6 mg/kg s.c.; for Comment: Anti-Emetic Activity (inhibition) on morphine-induced emesis: summary of the morphine experiments
Method: Example 6—In-Vivo Effect of GIP Receptor Agonist Peptides on Emesis in Morphine Induced Emesis Model in Live Male Ferrets
Effect of subcutaneously administered GIP receptor agonist peptide in morphine-induced acute emetic model.
To evaluate the antiemetic effect, the GIP receptor agonist peptides other than natural human GIP were subcutaneously administered into male ferrets 30 minutes before morphine administration. […]. Up to 60 minutes after morphine administration, the condition of the ferrets was monitored to record the frequencies and time points of abdominal contraction motions, vomiting behaviors, licking with the tongue, and fidgety behavior occurring
Effects of Subcutaneously Administered GIP Receptor Agonist Peptides in Morphine-Induced Acute Emetic Model
30 nmol/kg of Compounds 3 and 5 were dissolved with a vehicle (0.09 w/v % tween 80/10% DMSO/saline), respectively, to prepare test solutions. […] of the test solutions and the vehicle were subcutaneously administered to ferrets (4 in each group), respectively. At the time of each of 4 hours, after administration, 0.6 mg/kg of morphine was subcutaneously administered. […] See results in Tables 6, 7 and 8.
(§1) 10 nmol/kg of each compound dissolved with a vehicle (0.09 w/v % tween 80/10% DMSO/saline) respectively, to prepare test solutions. […] of the test solutions and the vehicle were subcutaneously administered to ferrets (4 in each group), respectively. At the time of each of 4 hours, or 120 hours after administration, 0.6 mg/kg of morphine was subcutaneously administered. Up to 360 minutes after morphine administration, the condition of the ferrets was monitored to record the frequencies and time points of abdominal contraction motions, vomiting behaviors, licking with the tongue, and fidgety behavior occurring.
as §1, with “30 nmol/kg” for “10 nmol/kg”, “80/10% DMSO/saline),respectively,” for “80/10% DMSO/saline) respectively,”

human GIPR = biological target: T1, human GIPR (human, UniProt P48546 22-466); experiment: cell-based or functional assay
T1 sequence (looked up): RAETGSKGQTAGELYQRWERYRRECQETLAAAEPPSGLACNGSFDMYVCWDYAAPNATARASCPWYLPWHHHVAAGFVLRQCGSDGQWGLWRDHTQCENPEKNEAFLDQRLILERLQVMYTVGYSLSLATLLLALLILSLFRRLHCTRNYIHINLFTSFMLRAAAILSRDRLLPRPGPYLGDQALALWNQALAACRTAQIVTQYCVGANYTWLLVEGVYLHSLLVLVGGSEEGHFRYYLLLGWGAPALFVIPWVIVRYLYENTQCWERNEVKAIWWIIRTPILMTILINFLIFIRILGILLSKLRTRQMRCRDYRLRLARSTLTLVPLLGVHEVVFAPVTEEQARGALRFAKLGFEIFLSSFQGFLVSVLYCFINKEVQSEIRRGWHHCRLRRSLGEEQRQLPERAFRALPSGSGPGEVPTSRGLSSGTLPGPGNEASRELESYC

human GLP-1R = human GLP-1R (human, UniProt P43220 24-463); experiment: cell-based or functional assay

Molecule: CC[C@H](C)[C@H](NC(=O)[C@H](CO)NC(=O)[C@H](Cc1ccc(O)cc1)NC(=O)[C@H](CC(=O)O)NC(=O)[C@H](CO)NC(=O)[C@@H](NC(=O)[C@H](Cc1ccccc1)NC(=O)[C@@H](NC(=O)CNC(=O)[C@H](CCC(=O)O)NC(=O)[C@@H](C)NC(=O)[C@@H](N)Cc1ccc(O)cc1)[C@@H](C)O)[C@@H](C)CC)C(=O)N[C@@H](C)C(=O)N[C@@H](CCSC)C(=O)N[C@@H](CC(=O)O)C(=O)N[C@@H](CCCCN)C(=O)N[C@H](C(=O)N[C@@H](Cc1c[nH]cn1)C(=O)N[C@@H](CCC(N)=O)C(=O)N[C@@H](CCC(N)=O)C(=O)N[C@@H](CC(=O)O)C(=O)N[C@@H](Cc1ccccc1)C(=O)N[C@H](C(=O)N[C@@H](CC(N)=O)C(=O)N[C@@H](Cc1c[nH]c2ccccc12)C(=O)N[C@@H](CC(C)C)C(=O)N[C@@H](CC(C)C)C(=O)N[C@@H](C)C(=O)N[C@@H](CCC(N)=O)C(=O)N[C@@H](CCCCN)C(=O)N1CCC[C@H]1C(=O)N[C@@H](CO)C(=O)N[C@@H](CO)C(=O)NCC(=O)N[C@@H](C)C(=O)N1CCC[C@H]1C(=O)N1CCC[C@H]1C(=O)N1CCC[C@H]1C(=O)N[C@@H](CO)C(N)=O)C(C)C)[C@@H](C)CC [Compound 11]
- Emesis: Duration ([1]; ferrets): 0.0 ± 0.0 min
- Emesis: Frequency ([1]; ferrets): 0.0 ± 0.0
- Emesis: No. of animals (responder/used) ([1]; ferrets): 0/4 #
- Fidget: Duration ([1]; ferrets): 0.0 ± 0.0 min
- Fidget: Frequency ([1]; ferrets): 0.0 ± 0.0
- Fidget: No. of animals (responder/used) ([1]; ferrets): 0/4
- Licking: Duration ([1]; ferrets): 0.0 ± 0.0 min
- Licking: Frequency ([1]; ferrets): 0.0 ± 0.0
- Licking: No. of animals (responder/used) ([1]; ferrets): 0/4 #
- Retching: Duration ([1]; ferrets): 0.0 ± 0.0 min
- Retching: Frequency ([1]; ferrets): 0.0 ± 0.0
- Retching: No. of animals (responder/used) ([1]; ferrets): 0/4 #
- Vomiting: Duration ([1]; ferrets): 0.0 ± 0.0 min
- Vomiting: Frequency ([1]; ferrets): 0.0 ± 0.0
- Vomiting: No. of animals (responder/used) ([1]; ferrets): 0/4
- Emesis: Latency ([1]; ferrets): 30.0 ± 0.0 min
- Fidget: Latency ([1]; ferrets): 30.0 ± 0.0 min
- Licking: Latency ([1]; ferrets): 30.0 ± 0.0 min
- Retching: Latency ([1]; ferrets): 30.0 ± 0.0 min
- Vomiting: Latency ([1]; ferrets): 30.0 ± 0.0 min
- Attenuation of morphine-induced emesis (in words) [1]: completely attenuated
- Comment: Anti-Emetic Activity (inhibition) on morphine-induced emesis [1]: 100% inhibition

Molecule: CC[C@H](C)[C@H](NC(=O)[C@H](CO)NC(=O)[C@H](Cc1ccc(O)cc1)NC(=O)[C@H](CC(=O)O)NC(=O)[C@H](CO)NC(=O)[C@@H](NC(=O)[C@H](Cc1ccccc1)NC(=O)[C@@H](NC(=O)CNC(=O)[C@H](CCC(=O)O)NC(=O)[C@@H](C)NC(=O)[C@@H](N)Cc1ccc(O)cc1)[C@@H](C)O)[C@@H](C)CC)C(=O)N[C@@H](C)C(=O)N[C@@H](CCSC)C(=O)N[C@@H](CC(=O)O)C(=O)N[C@@H](CCCCN)C(=O)N[C@H](C(=O)N[C@@H](Cc1c[nH]cn1)C(=O)N[C@@H](CCC(N)=O)C(=O)N[C@@H](CCC(N)=O)C(=O)N[C@@H](CC(=O)O)C(=O)N[C@@H](Cc1ccccc1)C(=O)N[C@H](C(=O)N[C@@H](CC(N)=O)C(=O)N[C@@H](Cc1c[nH]c2ccccc12)C(=O)N[C@@H](CC(C)C)C(=O)N[C@@H](CC(C)C)C(=O)N[C@@H](C)C(=O)N[C@@H](CCC(N)=O)C(=O)N[C@@H](CCCCN)C(=O)O)C(C)C)[C@@H](C)CC [Compound 4]
- Emesis: Duration ([1]; ferrets): 0.0 ± 0.0 min
- Emesis: Frequency ([1]; ferrets): 0.0 ± 0.0
- Emesis: No. of animals (responder/used) ([1]; ferrets): 0/4 #
- Fidget: Duration ([1]; ferrets): 0.0 ± 0.0 min
- Fidget: Frequency ([1]; ferrets): 0.0 ± 0.0
- Fidget: No. of animals (responder/used) ([1]; ferrets): 0/4
- Licking: Duration ([1]; ferrets): 0.0 ± 0.0 min
- Licking: Frequency ([1]; ferrets): 0.0 ± 0.0
- Licking: No. of animals (responder/used) ([1]; ferrets): 0/4 #
- Retching: Duration ([1]; ferrets): 0.0 ± 0.0 min
- Retching: Frequency ([1]; ferrets): 0.0 ± 0.0
- Retching: No. of animals (responder/used) ([1]; ferrets): 0/4 #
- Vomiting: Duration ([1]; ferrets): 0.0 ± 0.0 min
- Vomiting: Frequency ([1]; ferrets): 0.0 ± 0.0
- Vomiting: No. of animals (responder/used) ([1]; ferrets): 0/4
- Emesis: Latency ([1]; ferrets): 30.0 ± 0.0 min
- Fidget: Latency ([1]; ferrets): 30.0 ± 0.0 min
- Licking: Latency ([1]; ferrets): 30.0 ± 0.0 min
- Retching: Latency ([1]; ferrets): 30.0 ± 0.0 min
- Vomiting: Latency ([1]; ferrets): 30.0 ± 0.0 min
- Attenuation of morphine-induced emesis (in words) [1]: completely attenuated
- Comment: Anti-Emetic Activity (inhibition) on morphine-induced emesis [1]: 100% inhibition

Molecule: Ac-(D-Tyr)AEGTFISDYSIAMDAIHQQDFVNWLLAQLys-(palmitoyl acyl fatty acid)-NH2 (Ac-[dY]AEGTFISDYSIAMDAIHQQDFVNWLLAQK(Palmitoyl)-NH2; SMILES CCCCCCCCCCCCCCCC(=O)NCCCC[C@H](NC(=O)[C@H](CCC(N)=O)NC(=O)[C@H](C)NC(=O)[C@H](CC(C)C)NC(=O)[C@H](CC(C)C)NC(=O)[C@H](Cc1c[nH]c2ccccc12)NC(=O)[C@H](CC(N)=O)NC(=O)[C@@H](NC(=O)[C@H](Cc1ccccc1)NC(=O)[C@H](CC(=O)O)NC(=O)[C@H](CCC(N)=O)NC(=O)[C@H](CCC(N)=O)NC(=O)[C@H](Cc1c[nH]cn1)NC(=O)[C@@H](NC(=O)[C@H](C)NC(=O)[C@H](CC(=O)O)NC(=O)[C@H](CCSC)NC(=O)[C@H](C)NC(=O)[C@@H](NC(=O)[C@H](CO)NC(=O)[C@H](Cc1ccc(O)cc1)NC(=O)[C@H](CC(=O)O)NC(=O)[C@H](CO)NC(=O)[C@@H](NC(=O)[C@H](Cc1ccccc1)NC(=O)[C@@H](NC(=O)CNC(=O)[C@H](CCC(=O)O)NC(=O)[C@H](C)NC(=O)[C@@H](Cc1ccc(O)cc1)NC(C)=O)[C@@H](C)O)[C@@H](C)CC)[C@@H](C)CC)[C@@H](C)CC)C(C)C)C(N)=O) [Compound 7]
- Ferrets in which the vomiting symptom was observed (in words) ([1]; ferrets, morphine administered 4 hours after administration): all of the 4 ferrets

B1: Compound No. 1 (peptide)
peptide: Ac-YAEGTFISDYSIAMDKIHQQDFVNWLLAQKGKKNDWKHNIIQ-OH
- GIPR EC50 nM (A) (human GIPR): 0.01 nM
- GIPR pEC50 (human GIPR): 11
- GLP1R EC50 nM (B) (human GLP-1R): 302 nM
- GLP1R pEC50 (human GLP-1R): 6.5

B2: Compound No. 24 (peptide)
peptide: Y[Aib]EGTFISDYSIALDKIHQQK([ethylene glycol-ethylene glycol-C15 diacid])FVNWLLAQRG-OH
- GIPR EC50 nM (A) (human GIPR): < 0.001 nM

B3: Compound No. 25 (peptide)
peptide: Y[Aib]EGTFISDYSIALDKIK([ethylene glycol-ethylene glycol-C15 diacid])QQDFVNWLLAQRG-OH
- GIPR EC50 nM (A) (human GIPR): < 0.001 nM
- GLP1R EC50 nM (B) (human GLP-1R): > 1000 nM
- GLP1R pEC50 (human GLP-1R): < 8

B4: Compound No. 3 (peptide)
peptide: YAEGTFISDYSIAMDKIHQQDFVNWLLAQKGKKNDWKHNIIQ
modifications: Lys-(palmitoyl acyl fatty acid acyl) at 16; C-terminal -NH2
- GIPR EC50 nM (A) (human GIPR): 0.331 nM
- GIPR pEC50 (human GIPR): 9.5
- GLP1R EC50 nM (B) (human GLP-1R): 148 nM
- GLP1R pEC50 (human GLP-1R): 6.8

B5: Compound No. 28 (peptide)
peptide: Y[Aib]EGTFISDYSIALDKIHQQK([ethylene glycol-ethylene glycol-C15 diacid])FVNWLLAQR-NH2
- GIPR EC50 nM (A) (human GIPR): < 0.001 nM

B6: Compound No. 31 (peptide)
peptide: Y[Aib]EGTFISDYSIALDKIHQQDFVNWLLAQK([ethylene glycol-ethylene glycol-C15 diacid])G-OH
- GIPR EC50 nM (A) (human GIPR): 0.002 nM

B7: Compound No. 4 (peptide)
peptide: Y[dA]EGTFISDYSIAMDKIHQQDFVNWLLAQK-OH
- GLP1R EC50 nM (B) (human GLP-1R): 355 nM
- GLP1R pEC50 (human GLP-1R): 6.5

B8: Compound No. 2 (peptide)
peptide: Y[dA]EGTFISDYSIAMDKIHQQDFVNWLLAQKGKKNDWK(Palmitoyl)HNIIQ-NH2
- GLP1R EC50 nM (B) (human GLP-1R): 5 nM
- GLP1R pEC50 (human GLP-1R): 8.3

B9: Compound No. 19 (peptide)
peptide: YXEGTFISDYSIAMDKIHQQDFVNWLLAQKGKKNDWKHNITQK
modifications: Aib at 2; Lys-(gamma-glutamic acid)3-palmitoyl at 43; C-terminal -OH
- GLP1R pEC50 (human GLP-1R): 8.26
